In patent publication US11903386B2, “Strigolactone analogs and their usage in plant control” (King Abdullah University of Science and Technology, priority 2016, dated 2024):
“Also recorded” adds a separate entry of the source.

What was measured:
Arabidopsis seedlings [1] = test: Arabidopsis hypocotyl elongation assay; format: in vivo; settings: 1.0 μM
Procedure: Sterilized Arabidopsis seeds were sown on half strength MS (with 0.5% sucrose+1% agar, 0.5 g L-1 MES, pH 5.7) plates supplemented with MPs or GR24 (at 1.0 μM). Plates were stored at 4° C. in darkness for 3 days. To initiate germination, plates were exposed to continuous white light for 24 h then transferred to continuous monochromatic red light (160 Lux, 22° C.) conditions for another 4 days. For hypocotyl length measurement, at least 30 seedlings were measured using the publically available ImageJ software (http://rsbweb.nih.gov/ij/) after taking digital photographs. Monochromatic red light source was applied as described previously (Wu and Yang, 2010). Light flow rates were measured using a Li250 quantum photometer (Li-Cor, Lincoln, NE, USA).

[2] = Chemical stability of MPs in aqueous solution, monitored by HPLC; format: physicochemical; settings: aqueous solution pH 6.8, 21° C., monitored at 24 h intervals up to 3 weeks
Procedure: Aqueous solutions of MPs (50 μg ml-1; pH 6.8) were incubated at 21° C. in amber HPLC vials. For sample preparation, 50 μl of an acetone solution (1 mg ml-1) was diluted to the final concentration with methanol (425 μl), water (500 μl) and 25 μl of 1-Indanol (1.0 mg ml-1 solution in acetone) as internal standard. […] The column was operated at 35° C. with a flow rate of 0.25 ml per min. Compounds eluted from the column were detected with a Diode array detector. Relative quantity of remaining (non-degraded) product was determined by comparison to the internal standard.

S. hermonthica = settings: in vivo; cited from earlier work
P. ramosa seeds = test: P. ramosa seed germination bioassay; format: in vivo; settings: 1.0 μM
Procedure: (§1) Parasitic weed seeds (S. hermonthica and P. ramosa) germination activity was recorded as described previously (Jamil et al., 2012). Six pre-conditioned seed discs were placed in a 90 mm petri-dish containing a filter paper ring wetted with 0.9 ml sterile MilliQ water. […] GR24 solutions with equal concentrations and sterile MilliQ water were included as a positive and negative control, respectively. After application, seeds were incubated at 30° C./25° C. in the dark for two days. Germination (seeds with radical emerging through seed coat) was scored under a binocular microscope, and germination rate (%) was calculated.

Arabidopsis seedlings [3] = test: Arabidopsis lateral root density and primary root length; format: in vivo; settings: 1.0 μM, 8 days old seedlings
Procedure: Sterilized Arabidopsis seeds were sown on half strength MS (with 0.5% sucrose+1% agar, 0.5 g L^−1 MES, pH 5.7) plates supplemented with GR24 or MPs (at 1.0 μM). Plates were stored at 4° C. in darkness for 3 days and then vertically grown at 22° C. in Percival incubator under long day condition (16 h at 22° C./8 h at 16° C. day/night, 60% relative humidity, 4000-5000 LUX white light) for 8 days. For determining the effect on lateral root density and primary root length, at least 30 seedlings were measured using publically available ImageJ software (http://rsbweb.nih.gov/ij/) after scanning roots.

[4] = system: rice seedlings (Shiokari, d3, d10); test: Growth and fresh biomass of hydroponically grown rice seedlings; format: in vivo; settings: 2.5 μM, twice a week for three weeks
Procedure: Rice seeds (WT, d3, d10) were surface-sterilized by washing with 70% ethanol for 1 min and then with 2.5% sodium hypochlorite for 15 min. Seeds were then rinsed thoroughly with sterile MilliQ water and incubated in water for 2 days at 30° C. in the dark. Pre-germinated seeds were transferred to filter papers containing ½ strength MS medium in 90 mm petri dishes and incubated at 30° C. under fluorescent white light (130-180 μM m^−2 s^−1) for one week. Seven day-old seedlings were transferred to 50 ml falcon tubes (one seedling per tube) containing modified half-strength Hoagland nutrient solution and grown in greenhouse. Plants were treated with MPs at 2.5 μM-2.5×10-7 μM, using GR24 as positive control. The compounds were applied six times, twice a week. Number of tillers per plant, plant height and fresh biomass were measured at final harvest.

S. hermonthica seeds = test: Striga hermonthica seed germination bioassay; format: in vivo; settings: comparison between compounds
Procedure: as §1, with “calculated. Statistical analyses were carried out using statistical software package R (version 3.2.2). Dose-response curves and Half Maximum Effective Concentrations (EC50) were calculated to determine optimum amount of MPs. Synthetic strigolactone analog GR24 was used as reference to estimate efficacy of selected compounds. EC50 and estimated response were calculated using drc package (https://cran.r390 project.org/web/packages/drc/) with a Four Parameter Logistic Curve (Dose Response Curve) (Ritz and Streibig, 2005).” for “calculated.”

CC1=CC(O/C=C(/C=O)c2ccc([N+](=O)[O-])cc2)OC1=O (racemic) [MP12, (E)-3-(4-methyl-5-oxo-2,5-dihydrofuran-2-yloxy)-2-(4-nitrophenyl)acrylaldehyde]
Inhibition of hypocotyl growth (Arabidopsis seedlings [1]): Apart from MP12 and MP15, all MPs showed significant inhibition
Stability in comparison to GR24 [2]: not detectable even after only 24 h

CC1=CC(O/C=C(C)\C=C\C2=C(C)CCCC2(C)C)OC1=O (centres unmarked) [Carlactone]
Activity in S. hermonthica seed germination (S. hermonthica): considerable activity

CC1=CC(O/C=C2/C(=O)OCc3ccccc32)OC1=O (centres unmarked) [MP5]
Stability in comparison to GR24 [2]: more stable than GR24; also recorded: the most stable compound

COC(=O)/C(=C/OC1C=C(C)C(=O)O1)c1cccc(Cl)c1 (centres unmarked) [MP8]
P. ramosa seed germination activity (P. ramosa seeds): much higher activity
Stability in comparison to GR24 [2]: very similar to that of GR24
Reduction of number of lateral roots / lateral root density (Arabidopsis seedlings [3]): slightly more active than GR24

COC(=O)/C(=C/OC1C=C(C)C(=O)O1)c1ccccc1Cl (centres unmarked) [MP9]
Growth, senescence symptoms and biomass of rice seedlings [4]: stunted the growth and caused senescence symptoms
Stability in comparison to GR24 [2]: very similar to that of GR24
Relative activity in inducing S. hermonthica seed germination (S. hermonthica seeds): followed by MP9

COC(=O)/C(=C/OC1C=C(C)C(=O)O1)c1ccc(OC)cc1 (centres unmarked) [MP14]
Stability in comparison to GR24 [2]: very similar to that of GR24
